ChEMBL document CHEMBL6103573, “Discovery of novel thienopyridine indole derivatives as inhibitors of tubulin polymerization targeting the colchicine-binding site with potent anticancer activities” (Eur J Med Chem, 2025)
pIC50: −log10 of the molar value. Active and inactive are the calls of the source. No cut-off for these calls is given here.

Key:
[1] = system: HGC-27; assay: Antiproliferative activity against human HGC-27 cells assessed as inhibition of cell proliferation incubated for 48 hrs by MTT assay; assay type: functional, cell-based; conditions: HGC-27, 48 h
[2] = system: SGC-7901; assay: Antiproliferative activity against human SGC-7901 cells assessed as inhibition of cell proliferation incubated for 48 hrs by MTT assay; assay type: functional, cell-based; conditions: SGC-7901, 48 h
[3] = system: MGC-803; assay: Antiproliferative activity against human MGC-803 cells assessed as survival rate at 2 nmol/L measured after 48 hrs by MTT assay relative to control; assay type: functional; conditions: read-out: Survival
[4] = system: MGC-803; assay: Antiproliferative activity against human MGC-803 cells assessed as reduction in cell viability at 0.25 to 2.0 nmol/L by MTT assay; assay type: functional, cell-based; conditions: dose 0.25-2 nmol/L, time 6-48 hrs
[5] = system: HGC-27; assay: Antiproliferative activity against human HGC-27 cells assessed as reduction in cell viability at 0.25 to 2.0 nmol/L by MTT assay; assay type: functional, cell-based; conditions: dose 0.25-2 nmol/L, time 6-48 hrs
[6] = target: T1, Tubulin beta (Homo sapiens) (UniProt P68371+Q9H4B7+Q13509+P04350+Q3ZCM7+P07437+Q13885+Q9BVA1+Q9BUF5+A6NNZ2); assay: Competitive binding affinity to beta-tubulin colchicine binding site in human MGC-803 cells assessed as inhibition of EBI-beta-tubulin adduct band formation by measuring reduction in adduct band intensity preincubated for 2 hrs followed by EBI addition and measured after 2 hrs by Western blotting analysis; assay type: cell-based; conditions: dose 0.1-1 µmol/L, time 4.0 hrs
[7] = target: T1, Tubulin beta (Homo sapiens); assay: Competitive binding affinity to beta-tubulin colchicine binding site in human MGC-803 cells assessed as inhibition of EBI-beta-tubulin adduct band formation at 1 umol/L preincubated for 2 hrs followed by EBI addition and measured after 2 hrs by Western blotting analysis; assay type: cell-based; conditions: dose 1.0 µmol/L, time 4.0 hrs
[8] = target: T1, Tubulin beta (Homo sapiens); assay: Competitive binding affinity to beta-tubulin colchicine binding site in human HGC-27 cells assessed as inhibition of EBI-beta-tubulin adduct band formation at 1 umol/L preincubated for 2 hrs followed by EBI addition and measured after 2 hrs by Western blotting analysis; assay type: cell-based; conditions: dose 1.0 µmol/L, time 4.0 hrs
[9] = target: T2, Tubulin (Homo sapiens) (UniProt P68371+Q9H4B7+P0DPH7+P68366+Q13509+Q71U36+P04350+Q3ZCM7+P07437+P68363+Q9BQE3+Q6PEY2+Q13885+Q9BVA1+Q9BUF5); assay: Disruption of microtubule network in human MGC-803 cells assessed as appearance of multinucleation at 0.25 to 2.0 nmol/L incubated for 24 hrs by DAPI staining based fluorescence microscopic analysis; assay type: cell-based; conditions: dose 0.25-2 nmol/L
[10] = target: T2, Tubulin (Homo sapiens); assay: Disruption of microtubule network in human HGC-27 cells assessed as reduction in filamentous microtubule structure formation at 0.25 to 2.0 nmol/L incubated for 24 hrs by DAPI staining based fluorescence microscopic analysis; assay type: cell-based; conditions: dose 0.25-2 nmol/L
[11] = system: MGC-803; assay: Inhibition of colony formation in human MGC-803 cells at 0.5 nmol/L incubated for 7 days by crystal violet staining based colony formation assay relative to control; assay type: functional; conditions: MGC-803, 168 h, time 7 day
[12] = system: MGC-803; assay: Induction of cell cycle arrest in human MGC-803 cells assessed as downregulation of Wee1 level measured after 48 hrs by Western blot analysis; assay type: functional, cell-based; conditions: dose 0.25-2 nmol/L
[13] = system: MGC-803; assay: Induction of cell cycle arrest in human MGC-803 cells assessed as downregulation of Cdc2 phosphorylation at Tyr15 residue measured after 48 hrs by Western blot analysis; assay type: functional, cell-based; conditions: dose 0.25-2 nmol/L
[14] = system: HGC-27; assay: Induction of cell cycle arrest at G2 phase in human HGC-27 cells assessed as increase in p-Histone H3 level at 0.25 to 2.0 nmol/L measured after 48 hrs by Western blot analysis; assay type: functional, cell-based; conditions: dose 0.25-2 nmol/L
[15] = system: MGC-803; assay: Induction of apoptosis in human MGC-803 cells assessed as appearance of bright cells at 0.25 to 2.0 nmol/L incubated for 48 hrs by bright field microscopic analysis; assay type: functional, cell-based; conditions: dose 0.25-2 nmol/L
[16] = system: MGC-803; assay: Induction of apoptosis in human MGC-803 cells assessed as cell rupture at 0.25 to 2.0 nmol/L incubated for 48 hrs by bright field microscopic analysis; assay type: functional, cell-based; conditions: dose 0.25-2 nmol/L
[17] = system: MGC-803; assay: Induction of apoptosis in human MGC-803 cells assessed as increase in dead to live cells ratio at 0.25 to 2.0 nmol/L incubated for 48 hrs by Calcein-AM/PI staining based analysis; assay type: functional, cell-based; conditions: dose 0.25-2 nmol/L
[18] = system: HGC-27; assay: Induction of apoptosis in human HGC-27 cells assessed as increase in cleaved PARP expression at 0.25 to 2.0 nmol/L incubated for 48 hrs by Western blotting analysis; assay type: functional, cell-based; conditions: dose 0.25-2 nmol/L
[19] = system: MGC-803; assay: Induction of apoptosis in human MGC-803 cells assessed as early apoptotic cells at 0.25 nmol/L incubated for 48 hrs by Annexin V-FITC/propidium iodide staining based flow cytometry analysis (reference value: 0.83 %); assay type: functional
[20] = system: MGC-803; assay: Induction of apoptosis in human MGC-803 cells assessed as late apoptotic cells at 2.0 nmol/L incubated for 48 hrs by Annexin V-FITC/propidium iodide staining based flow cytometry analysis (reference value: 2.22 %); assay type: functional
[21] = system: HGC-27; assay: Induction of apoptosis in human HGC-27 cells assessed as late apoptotic cells at 0.25 nmol/L incubated for 48 hrs by Annexin V-FITC/propidium iodide staining based flow cytometry analysis (reference value: 3.70 %); assay type: functional
[22] = system: HGC-27; assay: Induction of apoptosis in human HGC-27 cells assessed as early apoptotic cells at 0.5 nmol/L incubated for 48 hrs by Annexin V-FITC/propidium iodide staining based flow cytometry analysis (reference value: 2.04 %); assay type: functional
[23] = system: HGC-27; assay: Induction of apoptosis in human HGC-27 cells assessed as late apoptotic cells at 1.5 nmol/L incubated for 48 hrs by Annexin V-FITC/propidium iodide staining based flow cytometry analysis (reference value: 3.70 %); assay type: functional
[24] = system: HGC-27; assay: Induction of apoptosis in human HGC-27 cells assessed as early apoptotic cells at 2.0 nmol/L incubated for 48 hrs by Annexin V-FITC/propidium iodide staining based flow cytometry analysis (reference value: 2.04 %); assay type: functional
[25] = system: HGC-27; assay: Anti-migratory activity against human HGC-27 cells assessed as decrease in cell migration at 1 nmol/L measured after 24 hrs by wound healing assay relative to control; assay type: functional; parameters: scale not given: the % may be the effect or the level left
[26] = system: HUVEC; assay: Anti-migratory activity against HUVEC cells assessed as wound healing rate at 1 nmol/L measured after 24 hrs by wound healing assay (reference value: 97 %); assay type: functional, Homo sapiens
[27] = Toxicity in female BALB/c-nu nude mouse xenografted with human MGC-803 cells assessed as body weight loss at 5 mg/kg, po administrated every other day for 11 times and measured after 21 days; assay type: organism-based; conditions: in vivo, 504 h, time 21 day
[28] = Toxicity in female BALB/c-nu nude mouse xenografted with human MGC-803 cells assessed as change in lung morphology at 5 mg/kg, po administrated every other day for 11 times and measured after 21 days by hematoxylin and eosin staining based analysis; assay type: organism-based; conditions: in vivo, 504 h, time 21 day
[29] = system: MGC-803; assay: Antitumor activity against human MGC-803 cells xenografted in female BALB/c-nu nude mouse assessed as increase in p-Histone H3 level in tumor at 5 mg/kg, po administrated every other day for 11 times and measured after 21 days by immunohistochemical analysis; assay type: functional, organism-based; conditions: time 21.0 day
[30] = target: T1, Tubulin beta (Homo sapiens); assay: Competitive binding affinity to beta-tubulin colchicine binding site in human MGC-803 cells assessed as reduction in EBI-beat tubulin adduct to beta-tubulin ratio preincubated for 2 hrs followed by EBI addition and measured after 2 hrs by Western blotting analysis; assay type: cell-based; conditions: dose 0.1-1 µmol/L, time 4.0 hrs
[31] = target: T1, Tubulin beta (Homo sapiens); assay: Competitive binding affinity to beta-tubulin colchicine binding site in human HGC-27 cells assessed as reduction in EBI-beat tubulin adduct to beta-tubulin ratio preincubated for 2 hrs followed by EBI addition and measured after 2 hrs by Western blotting analysis; assay type: cell-based; conditions: dose 0.1-1 µmol/L, time 4.0 hrs

`CN(c1ccc2c(ccn2C)c1)c1nc(N2CCCC2)nc2sccc12` showed a pIC50 [1] of 8.74, a pIC50 [2] of 8.70 and a viability at 0.002 µM [3] of 35%. The Activity [4] was “Time-dependent-effect”, the Activity [5] was “Time-dependent-effect” and the Activity [6] was “Dose-dependent-effect”. The Activity [7] was “Active; Stronger Affinity Observed”, the Activity [8] was “Active; Stronger Affinity Observed” and the Activity [9] was “Active”. The Activity [10] was “Active”, the inhibition at 0.0005 µM [11] was > 90% and the Activity [12] was “Dose-dependent-effect”. The Activity [13] was “Dose-dependent-effect”, the Activity [14] was “Active” and the Activity [15] was “Active”. The Activity [16] was “Active”, the Activity [17] was “Active” and the Activity [18] was “Active”. It also gave an Activity [19] of 1.28%, an Activity [20] of 8.06% and an Activity [21] of 3.14%. The Activity [22] was 4.64%, the Activity [23] was 5.22% and the Activity [24] was 14.4%. For the same molecule, the Activity [25] was 17%, the Activity [26] was 58% and the Activity [27] was “Non-toxic”. The Activity [28] was “Non-toxic”, the Activity [29] was “Active” and the Activity [30] was “Dose-dependent-effect”. The Activity [31] was “Dose-dependent-effect”.
